From patent US20240294522A1 (Lead Discovery Center GmbH, priority 2021, published 2024)

Experiments:
GRK2 = molecular target: T1, GRK2 (Homo sapiens, UniProt P25098); assay: Lance Kinase Activity Assay, GRK2; details: biochemical Lance kinase activity assay; class symbols A-F; read-out: GRK2 LANCE Assay (IC-50)
T1 construct: purchased Thermo Scientific
T1 sequence (P25098 1-689): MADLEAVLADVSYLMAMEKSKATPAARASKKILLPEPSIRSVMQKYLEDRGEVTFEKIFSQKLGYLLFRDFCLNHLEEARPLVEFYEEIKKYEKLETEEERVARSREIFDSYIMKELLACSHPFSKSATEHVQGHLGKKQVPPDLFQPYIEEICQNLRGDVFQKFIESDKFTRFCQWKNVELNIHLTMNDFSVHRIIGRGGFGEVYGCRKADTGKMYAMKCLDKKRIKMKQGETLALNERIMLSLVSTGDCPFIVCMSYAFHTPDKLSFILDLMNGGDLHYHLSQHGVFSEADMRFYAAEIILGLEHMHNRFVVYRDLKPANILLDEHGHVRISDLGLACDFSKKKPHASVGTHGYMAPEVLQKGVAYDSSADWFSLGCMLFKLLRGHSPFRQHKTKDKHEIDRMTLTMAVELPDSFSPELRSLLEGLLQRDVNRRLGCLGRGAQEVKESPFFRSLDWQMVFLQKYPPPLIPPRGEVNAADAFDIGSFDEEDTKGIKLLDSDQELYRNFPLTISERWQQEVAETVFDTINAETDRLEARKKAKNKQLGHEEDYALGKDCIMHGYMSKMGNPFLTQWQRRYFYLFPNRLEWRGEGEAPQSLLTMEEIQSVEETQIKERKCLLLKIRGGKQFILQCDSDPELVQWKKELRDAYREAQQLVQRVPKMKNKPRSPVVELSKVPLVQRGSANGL
Summary of the method: (§1)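 IC50s from sigmoidal dose-response over 0.0025-10 μM compound, with phosphorylated ULight substrate detected by Eu anti-phospho antibody FRET after EDTA quench.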

GRK5 = molecular target: T2, GRK5 (Homo sapiens, UniProt P34947); assay: Lance Kinase Activity Assay, GRK5; details: biochemical Lance kinase activity assay; class symbols A-F; read-out: GRK5 LANCE Assay (IC-50)
T2 construct: purchased Thermo Scientific
Summary of the method: as §1

T2 sequence (P34947 whole entry): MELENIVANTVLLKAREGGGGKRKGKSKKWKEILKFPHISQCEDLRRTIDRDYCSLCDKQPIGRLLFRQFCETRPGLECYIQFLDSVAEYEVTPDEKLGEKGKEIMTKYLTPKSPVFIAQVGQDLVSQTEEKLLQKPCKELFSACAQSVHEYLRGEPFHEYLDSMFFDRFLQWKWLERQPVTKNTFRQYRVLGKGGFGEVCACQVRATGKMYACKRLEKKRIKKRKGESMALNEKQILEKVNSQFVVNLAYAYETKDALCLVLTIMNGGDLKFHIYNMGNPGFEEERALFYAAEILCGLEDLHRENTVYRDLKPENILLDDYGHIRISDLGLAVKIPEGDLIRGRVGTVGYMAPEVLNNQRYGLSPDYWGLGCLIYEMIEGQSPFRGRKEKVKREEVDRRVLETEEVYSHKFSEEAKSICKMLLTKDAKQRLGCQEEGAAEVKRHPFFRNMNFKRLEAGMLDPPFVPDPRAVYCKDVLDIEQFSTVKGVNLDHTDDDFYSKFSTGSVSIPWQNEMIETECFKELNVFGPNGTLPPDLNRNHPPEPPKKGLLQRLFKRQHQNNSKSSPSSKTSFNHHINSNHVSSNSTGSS

| SMILES | IC50 (GRK2) [nM] | IC50 (GRK5) [nM] |
| --- | --- | --- |
| CN(C)c1ccc(CNC(=O)/C(C#N)=C/c2c[nH]c3ncccc23)cc1 [Example 24, (E)-2-cyano-N-(4-(dimethylamino)benzyl)-3-(1H-pyrrolo[2,3-b]pyridin-3-yl)acrylamide] | > 10000 | 1000 to 10000 |
| COc1ccc([C@@H](C)NC(=O)/C=C/c2c[nH]c3ncc(-c4ccccc4CN4CCOCC4)cc23)cc1OC [Example 206, (R,E)-N-(1-(3,4-dimethoxyphenyl)ethyl)-3-(5-(2-(morpholinomethyl)phenyl)-1H-pyrrolo[2,3-b]pyridin-3-yl)acrylamide] | > 10000 | 1000 to 10000 |
| COc1ccc([C@@H](C)NC(=O)/C(C#N)=C/c2c[nH]c3ncccc23)cc1OC [Example 15, (R,E)-2-cyano-N-(1-(3,4-dimethoxyphenyl)ethyl)-3-(1H-pyrrolo[2,3-b]pyridin-3-yl)acrylamide] | 1000 to 10000 | 50 to 100 |
| N#C/C(=C\c1c[nH]c2ncccc12)C(=O)NCc1ccc(C(F)(F)F)cc1 [Example 59, (E)-2-cyano-3-(1H-pyrrolo[2,3-b]pyridin-3-yl)-N-(4-(trifluoromethyl)benzyl)acrylamide] | 1000 to 10000 | 1000 to 10000 |
| CN(C)c1ccccc1CNC(=O)/C(C#N)=C/c1c[nH]c2ncccc12 [Example 25, (E)-2-cyano-N-(2-(dimethylamino)benzyl)-3-(1H-pyrrolo[2,3-b]pyridin-3-yl)acrylamide] | > 10000 | 1000 to 10000 |
| CN(C)CC(NC(=O)/C(C#N)=C/c1c[nH]c2ncccc12)c1ccccc1 (stereo not drawn) [Example 50, (E)-2-cyano-N-(2-(dimethylamino)-1-phenylethyl)-3-(1H-pyrrolo[2,3-b]pyridin-3-yl)acrylamide] | 100 to 500 | 100 to 500 |
| C[C@@H](NC(=O)/C(C#N)=C/c1c[nH]c2ncc(Cl)cc12)c1ccc(F)cc1 [Example 76, (R,E)-3-(5-chloro-1H-pyrrolo[2,3-b]pyridin-3-yl)-2-cyano-N-(1-(4-fluorophenyl)ethyl)acrylamide] | 500 to 1000 | 100 to 500 |
| COc1ccc([C@@H](C)NC(=O)/C=C/c2c[nH]c3ncc(-c4cccc(N(C)C)c4)cc23)cc1OC [Example 195, (R,E)-N-(1-(3,4-dimethoxyphenyl)ethyl)-3-(5-(3-(dimethylamino)phenyl)-1H-pyrrolo[2,3-b]pyridin-3-yl)acrylamide] | > 10000 | ≤ 50 |
| COc1ccc([C@@H](C)NC(=O)/C=C/c2c[nH]c3nccc(-c4ccc(CN5CCOCC5)cc4)c23)cc1OC [Example 232, (R,E)-N-(1-(3,4-dimethoxyphenyl)ethyl)-3-(4-(4-(morpholinomethyl)phenyl)-1H-pyrrolo[2,3-b]pyridin-3-yl)acrylamide] | 1000 to 10000 | 50 to 100 |
| COc1ccc([C@@H](C)NC(=O)/C=C/c2c[nH]c3nccc(-c4ccc(C5CCN(C)CC5)cc4)c23)cc1OC [Example 240, (R,E)-N-(1-(3,4-dimethoxyphenyl)ethyl)-3-(4-(4-(1-methylpiperidin-4-yl)phenyl)-1H-pyrrolo[2,3-b]pyridin-3-yl)acrylamide] | 1000 to 10000 | 50 to 100 |
| N#C/C(=C\c1c[nH]c2ncccc12)C(=O)NCc1cccc(N2CCOCC2)c1 [Example 46, (E)-2-cyano-N-(3-morpholinobenzyl)-3-(1H-pyrrolo[2,3-b]pyridin-3-yl)acrylamide] | > 10000 | 1000 to 10000 |
| CS(=O)(=O)Nc1ccccc1CNC(=O)/C(C#N)=C/c1c[nH]c2ncccc12 [Example 42, (E)-2-cyano-N-(2-(methylsulfonamido)benzyl)-3-(1H-pyrrolo[2,3-b]pyridin-3-yl)acrylamide] | 1000 to 10000 | 500 to 1000 |
| COc1ccc([C@@H](C)NC(=O)/C(C#N)=C/c2c[nH]c3ncc(-c4ccc(N5CCN(C)CC5)cc4OC)cc23)cc1OC [Example 153] | 500 to 1000 | ≤ 50 |
| N#C/C(=C\c1c[nH]c2ncccc12)C(=O)NC(CO)c1ccccc1 (stereo not drawn) [Example 32, (E)-2-cyano-N-(2-hydroxy-1-phenylethyl)-3-(1H-pyrrolo[2,3-b]pyridin-3-yl)acrylamide] | 50 to 100 | 50 to 100 |
| COc1ccc([C@@H](C)NC(=O)/C=C/c2c[nH]c3nccc(-c4cnn(C)c4C)c23)cc1OC [Example 237, (R,E)-N-(1-(3,4-dimethoxyphenyl)ethyl)-3-(4-(1,5-dimethyl-1H-pyrazol-4-yl)-1H-pyrrolo[2,3-b]pyridin-3-yl)acrylamide] | > 10000 | 100 to 500 |
| Cc1c(-c2cnn(C)c2)cnc2[nH]cc(/C=C(\C#N)C(=O)N[C@H](C)c3ccc(Cl)cc3)c12 [Example 100, (R,E)-N-(1-(4-chlorophenyl)ethyl)-2-cyano-3-(4-methyl-5-(1-methyl-1H-pyrazol-4-yl)-1H-pyrrolo[2,3-b]pyridin-3-yl)acrylamide] | 1000 to 10000 | 500 to 1000 |
| COc1ccc([C@@H](C)NC(=O)/C(C#N)=C/c2c[nH]c3nccc(-c4ccc(N5CCN(C)CC5)cc4)c23)cc1OC [Example 171, (R,E)-2-cyano-N-(1-(3,4-dimethoxyphenyl)ethyl)-3-(4-(4-(4-methylpiperazin-1-yl)phenyl)-1H-pyrrolo[2,3-b]pyridin-3-yl)acrylamide] | 1000 to 10000 | ≤ 50 |
| COc1ccc([C@@H](C)NC(=O)/C=C/c2c[nH]c3ncc(-c4cnn(C)c4C#N)cc23)cc1OC [Example 211, (R,E)-3-(5-(5-cyano-1-methyl-1H-pyrazol-4-yl)-1H-pyrrolo[2,3-b]pyridin-3-yl)-N-(1-(3,4-dimethoxyphenyl)ethyl)acrylamide] | 500 to 1000 | ≤ 50 |
| C[C@@H](NC(=O)/C(C#N)=C/c1c[nH]c2ncc(-c3cnn(C)c3)cc12)c1ccccc1 [Example 91, (R,E)-2-cyano-3-(5-(1-methyl-1H-pyrazol-4-yl)-1H-pyrrolo[2,3-b]pyridin-3-yl)-N-(1-phenylethyl)acrylamide] | 100 to 500 | ≤ 50 |

Results, then the molecule that gave them:

| IC50 (GRK2) [nM] | IC50 (GRK5) [nM] | SMILES |
| --- | --- | --- |
| 1000 to 10000 | ≤ 50 | COc1ccc([C@@H](C)NC(=O)/C(C#N)=C/c2c[nH]c3ncc(-c4cn(C)cn4)cc23)cc1OC [Example 166, (R,E)-2-cyano-N-(1-(3,4-dimethoxyphenyl)ethyl)-3-(5-(1-methyl-1H-imidazol-4-yl)-1H-pyrrolo[2,3-b]pyridin-3-yl)acrylamide] |
| > 10000 | ≤ 50 | COc1ccc([C@@H](C)NC(=O)/C(C#N)=C/c2c[nH]c3ncc(-c4cccc(NS(C)(=O)=O)c4)cc23)cc1OC [Example 151, (R,E)-2-cyano-N-(1-(3,4-dimethoxyphenyl)ethyl)-3-(5-(3-(methylsulfonamido)phenyl)-1H-pyrrolo[2,3-b]pyridin-3-yl)acrylamide] |
| 1000 to 10000 | ≤ 50 | COc1ccc([C@@H](C)NC(=O)/C(C#N)=C/c2c[nH]c3ncc(-c4ccc(N(C)C)nc4)cc23)cc1OC [Example 147, (R,E)-2-cyano-N-(1-(3,4-dimethoxyphenyl)ethyl)-3-(5-(6-(dimethylamino)pyridin-3-yl)-1H-pyrrolo[2,3-b]pyridin-3-yl)acrylamide] |
| > 10000 | ≤ 50 | COc1ccc([C@@H](C)NC(=O)/C(C#N)=C/c2c[nH]c3ncc(C4=CCCC4)cc23)cc1OC [Example 158, (R,E)-2-cyano-3-(5-(cyclopent-1-en-1-yl)-1H-pyrrolo[2,3-b]pyridin-3-yl)-N-(1-(3,4-dimethoxyphenyl)ethyl)acrylamide] |
| 1000 to 10000 | 1000 to 10000 | COc1ccc([C@@H](C)NC(=O)/C(C#N)=C/c2c[nH]c3ncc(-c4cccc(OCCCN(C)C)c4)cc23)cc1OC [Example 133] |
| > 10000 | 50 to 100 | COc1ccc([C@@H](C)NC(=O)/C(C#N)=C/c2c[nH]c3ncc(-c4ccccc4)cc23)cc1OC [Example 116] |
| 500 to 1000 | ≤ 50 | COc1ccc([C@@H](C)NC(=O)/C(C#N)=C/c2c[nH]c3ncc(-c4ccc(OCCN(C)C)cc4)cc23)cc1OC [Example 154] |
| 500 to 1000 | ≤ 50 | COc1ccc([C@@H](C)NC(=O)/C=C/c2c[nH]c3ncc(-c4cccc(OCCCN(C)C)c4)cc23)cc1OC [Example 188] |
| 1000 to 10000 | ≤ 50 | COc1ccc([C@@H](C)NC(=O)/C(C#N)=C/c2c[nH]c3ncc(-c4cccc(S(=O)(=O)N(C)C)c4)cc23)cc1OC [Example 149] |
| 1000 to 10000 | ≤ 50 | COc1ccc([C@@H](C)NC(=O)/C(C#N)=C/c2c[nH]c3nccc(-c4cccc(CN(C)C)c4)c23)cc1OC [Example 176, (R,E)-2-cyano-N-(1-(3,4-dimethoxyphenyl)ethyl)-3-(4-(3-((dimethylamino)methyl)phenyl)-1H-pyrrolo[2,3-b]pyridin-3-yl)acrylamide] |
| 1000 to 10000 | ≤ 50 | COc1ccc([C@@H](C)NC(=O)/C(C#N)=C/c2c[nH]c3ncc(-c4cn[nH]c4)cc23)cc1OC [Example 163] |
